Patent US20090209577A1, “Novel Triazolopyridine Compounds” (PFIZER INC., priority 2004, published 2009)
Counter-ions that a name gives are not always drawn.

Biological target: T1, human p38 kinase alpha (Homo sapiens, UniProt Q16539)
T1 construct: The coding region of the human p38a cDNA was obtained by PCR-amplification from RNA isolated from the human monocyte cell line THP.1; made in house; host or cells: E. coli DH10B
Test: p38 kinase in vitro assay (PHAS-I / 32P-ATP format or EGFRP / 33P-ATP format)
Assay type: biochemical
Conditions: activated human p38 kinase alpha, 50 μM unlabeled ATP; two assay formats, table does not say which
Method: The ability of compounds to inhibit human p38 kinase alpha was evaluated using two in vitro assay methods. In the first method, activated human p38 kinase alpha phosphorylates a biotinylated substrate, PHAS-I (phosphorylated heat and acid stable protein-insulin inducible), in the presence of gamma ^32P-ATP (^32P-ATP). PHAS-I was biotinylated prior to the assay and provides a means of capturing the substrate, which is phosphorylated during the assay. p38 Kinase was activated by MKK6. Compounds were tested in 10 fold serial dilutions over the range of 100 μM to 0.001 μM using 1% DMSO. Each concentration of inhibitor was tested in triplicate.
All reactions were carried out in 96 well polypropylene plates. Each reaction well contained 25 mM HEPES pH 7.5, 10 mM magnesium acetate and 50 μM unlabeled ATP. Activation of p38 was required to achieve sufficient signal in the assay. Biotinylated PHAS-1 was used at 1-2 μg per 50 μl reaction volume, with a final concentration of 1.5 μM. Activated human p38 kinase alpha was used at 1 μg per 50 μl reaction volume representing a final concentration of 0.3 μM. Gamma ^32P-ATP was used to follow the phosphorylation of PHAS-1. ^32P-ATP has a specific activity of 3000 Ci/mmol and was used at 1.2 μCi per 50 μl reaction volume. The reaction proceeded either for one hour or overnight at 30° C.
Following incubation, 20 μl of reaction mixture was transferred to a high capacity streptavidin coated filter plate (SAM-streptavidin-matrix, Promega) prewetted with phosphate buffered saline. The transferred reaction mix was allowed to contact the streptavidin membrane of the Promega plate for 1-2 minutes. Following capture of biotinylated PHAS-1 with ^32P incorporated, each well was washed to remove unincorporated ^32P-ATP three times with 2M NaCl, three washes of 2M NaCl with 1% phosphoric, three washes of distilled water and finally a single wash of 95% ethanol. Filter plates were air-dried and 20 μl of scintillant was added. The plates were sealed and counted.
A second assay format was also employed that is based on p38 kinase alpha induced phosphorylation of EGFRP (epidermal growth factor receptor peptide, a 21 mer) in the presence ^33P-ATP. Compounds were tested in 10 fold serial dilutions over the range of 100 μM to 0.001 μM in 1% DMSO. Each concentration of inhibitor was tested in triplicate. Compounds were evaluated in 50 μl reaction volumes in the presence of 25 mM Hepes pH 7.5, 10 mM magnesium acetate, 4% glycerol, 0.4% bovine serum albumin, 0.4 mM DTT, 50 μM unlabeled ATP, 25 μg EGFRP (200 μM), and 0.05 μCi ^33P-ATP. Reactions were initiated by addition of 0.09 μg of activated, purified human GST-p38 kinase alpha. Activation was carried out using GST-MKK6 (5:1, p38:MKK6) for one hour at 30° C. in the presence of 50 μM ATP. Following incubation for 60 minutes at room temperature, the reaction was stopped by addition of 150 μl of AG 1×8 resin in 900 mM sodium formate buffer, pH 3.0 (1 volume resin to 2 volumes buffer). The mixture was mixed three times with pipetting and the resin was allowed to settle. A total of 50 μl of clarified solution head volume was transferred from the reaction wells to Microlite-2 plates. 150 μl of Microscint 40 was then added to each well of the Microlite plate, and the plate was sealed, mixed, and counted.
The above protocol assays were used to determine the IC50 values for compounds in Examples 1-71 above.

T1 sequence (Q16539 whole entry): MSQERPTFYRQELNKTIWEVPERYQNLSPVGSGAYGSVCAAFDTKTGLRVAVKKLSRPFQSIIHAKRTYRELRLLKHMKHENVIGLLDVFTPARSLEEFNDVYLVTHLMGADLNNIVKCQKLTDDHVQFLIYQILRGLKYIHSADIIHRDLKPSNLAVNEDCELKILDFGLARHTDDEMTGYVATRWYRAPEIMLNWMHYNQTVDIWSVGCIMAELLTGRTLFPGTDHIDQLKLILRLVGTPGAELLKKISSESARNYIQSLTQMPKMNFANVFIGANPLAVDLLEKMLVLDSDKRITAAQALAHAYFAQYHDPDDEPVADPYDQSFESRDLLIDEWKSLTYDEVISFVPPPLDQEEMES

Work on `C=Cc1ccc(-c2nnc3ccc(Sc4ccc(F)cc4F)cn23)cc1` [Example 57, 6-[(2,4-difluorophenyl)thio]-3-(4-vinylphenyl)[1,2,4]triazolo[4,3-a]pyridine] yielded an IC50 of 181 nM.
`COC(=O)c1cccc(-c2nnc3ccc(Cc4ccc(F)cc4F)cn23)c1` [Example 58, methyl 3-[6-(2,4-difluorobenzyl)[1,2,4]triazolo[4,3-a]pyridin-3-yl]benzoate] showed an IC50 of 141 nM.
`O=C(O)c1ccc(-c2nnc3ccc(Cc4ccc(F)cc4F)cn23)cc1` [Example 59, 4-[6-(2,4-difluorobenzyl)[1,2,4]triazolo[4,3-a]pyridin-3-yl]benzoic acid] showed an IC50 greater than 100000 nM.
With `CC(C)c1nnc2ccc([S+]([O-])c3ccc(F)cc3F)cn12` (stereo not shown) [Example 60, 6-[(2,4-difluorophenyl)sulfinyl]-3-isopropyl[1,2,4]triazolo[4,3-a]pyridine] the IC50 was 9680 nM.
For `CC(C)c1nnc2ccc(S(=O)(=O)c3ccc(F)cc3F)cn12` [Example 61, 6-[(2,4-difluorophenyl)sulfonyl]-3-isopropyl[1,2,4]triazolo[4,3-a]pyridine], the IC50 was greater than 100000 nM.
`OCC(O)c1ccc(-c2nnc3ccc(Cc4ccc(F)cc4F)cn23)cc1` (stereo not shown) [Example 62, 1-{4-[6-(2,4-difluorobenzyl)[1,2,4]triazolo[4,3-a]pyridin-3-yl]phenyl}ethane-1,2-diol trifluoroacetate] gave an IC50 of 443 nM.
For `CC(C)(C)c1nnc2ccc(Sc3c(Cl)cccc3Cl)cn12` [Example 63, 3-tert-butyl-6-[(2,6-dichlorophenyl)thio][1,2,4]triazolo[4,3-a]pyridine], the IC50 was 54.6 nM.
Work on `COC(=O)c1cccc(-c2nnc3ccc(Sc4ccc(F)cc4F)cn23)c1` [Example 64A, methyl 3-{6-[(2,4-difluorophenyl)thio][1,2,4]triazolo[4,3-a]pyridin-3-yl}benzoate] yielded an IC50 of 181 nM.
Work on `O=C(O)c1cccc(-c2nnc3ccc(Sc4ccc(F)cc4F)cn23)c1` [Example 64B, 3-{6-[(2,4-difluorophenyl)thio][1,2,4]triazolo[4,3-a]pyridin-3-yl}benzoic acid] yielded an IC50 of 7420 nM.
With `COC(=O)c1cccc(-c2nnc3ccc(C(O)c4ccc(F)cc4F)cn23)c1` (stereo not shown) [Example 65, methyl 3-{6-[(2,4-difluorophenyl)(hydroxy)methyl][1,2,4]triazolo[4,3-a]pyridin-3-yl}benzoate] the IC50 was 1130 nM.
Work on `O=C(O)c1cccc(-c2nnc3ccc(C(=O)c4ccc(F)cc4F)cn23)c1` [Example 66, 3-[6-(2,4-difluorobenzoyl)[1,2,4]triazolo[4,3-a]pyridin-3-yl]benzoic acid] yielded an IC50 greater than 100000 nM.
Compound `CC(C)c1nnc2ccc(Cc3ccccc3F)cn12` [Example 67, 6-(2-fluorobenzyl)-3-isopropyl[1,2,4]triazolo[4,3-a]pyridine] has an IC50 of 699 nM.
`CC(C)c1nnc2ccc(Cc3cccc(F)c3)cn12` [Example 68, 6-(3-fluorobenzyl)-3-isopropyl[1,2,4]triazolo[4,3-a]pyridine] showed an IC50 of 5260 nM.
With `CC(C)c1nnc2ccc(Cc3ccc(F)cc3)cn12` [Example 69, 6-(4-fluorobenzyl)-3-isopropyl[1,2,4]triazolo[4,3-a]pyridine] the IC50 was 2500 nM.
With `CC(C)(C)c1nnc2ccc(Cc3ccc(F)cc3F)cn12` [Example 70, 3-tert-butyl-6-(2,4-difluorobenzyl)[1,2,4]triazolo[4,3-a]pyridine] the IC50 was 122 nM.
With `CC(C)C(=O)c1ccc2nnc(C(C)C)n2c1` [Example 71, 1-(3-isopropyl[1,2,4]triazolo[4,3-a]pyridin-6-yl)-2-methylpropan-1-one] the IC50 was 99100 nM.
